According to patent US20040235857A1, “Crystalline therapeutic agent” (Pfizer Inc, priority 2003, published 2004):

Tests used:
[1] = TGA of the higher hydrated form of sildenafil hemi-citrate; assay type: physicochemical; details: temperatures in excess of 150° C.; attributed to degradation of the citrate ion
Experimental: A TGA trace showing the relative % weight loss versus temperature for the solid form of the present invention is illustrated in FIG. 7. This trace was obtained using a Perkin-Elmer Pyris 1 TGA instrument. The sample, ideally about 5 to about 10 mg, was heated at 20° C./minute from ambient to about 300° C. with a purge gas of nitrogen.

[2] = Dynamic vapour sorption (DVS) moisture sorption; assay type: physicochemical; details: DVS isotherm, 30° C.
Experimental: The moisture sorption of the hydrated forms of sildenafil hemi-citrate was measured using a Surface Measurement Systems Ltd. Dynamic Vapour Sorption (DVS) Automated Water Sorption Analyser. A sample of the higher hydrate was initially equilibrated at about 45% RH and then analysed from 0 to 90% RH in relative humidity steps of 10% (exposure time of 6 hours per step). A second analysis was carried out from 35 to 65% RH in 5% RH steps to gain more detail in this humidity range (exposure time variable, weight stability of 0.0003%/minute gained for each steps). The temperature was maintained at 30° C. throughout the equilibration and analysis stages.
Sildenafil hemi-citrate is a hygroscopic material. The isotherm is represented in FIG. 5. At humidities greater than 55% RH the higher hydrate is present and from 30 to 40% RH the lower hydrate is present and at 0% RH the dehydrated form is present. Hysteresis occurs between the sorption and desorption isotherms in the 10 to 30 and 40 to 55% RH regions. This is classically seen for hydrates where kinetics associated with hydration and dehydration result in the events occurring at different humidities. There are slow kinetics associated with the rate of sorption (see FIG. 6) at 50% RH (illustrated by an equilibration time of 21 hours).

second weight loss [1]: about 12% | relative humidity at which the form is present [2]: 0 % RH
Compound: CCCc1nn(C)c2c(=O)[nH]c(-c3cc(S(=O)(=O)N4CCN(C)CC4)ccc3OCC)nc12.CCCc1nn(C)c2c(=O)[nH]c(-c3cc(S(=O)(=O)N4CCN(C)CC4)ccc3OCC)nc12.O=C(O)CC(O)(CC(=O)O)C(=O)O [dehydrated hydrate]
